{"source": "patent US11220548B2", "about": "“Treatment of C1013G/CXCR4-associated Waldenstrom's macroglobulinemia with an anti-CXCR4 antibody” (BRISTOL-MYERS SQUIBB COMPANY, priority 2013, dated 2022)", "key": {"[1]": {"system": "WM cell lines (BCWM.1; MWCL.1)", "test": "Transwell migration assay of WM cell lines", "type": "cell-based, human", "settings": "increasing concentrations, 5 h", "description": "FIGS. 14A and 14B: FIGS. 14A and 14B show the effect of BMS-936564 on migration of WM cells in vitro. WM cell lines (BCWM.1; MWCL.1) were tested for their migratory properties using a transwell migration assay. Cells were exposed to increasing concentrations of BMS-936564 and migration was determined after 5 h. The transwell migration assay was performed in presence of either primary WM BM-MSCs (FIG. 14A) or in presence of SDF-1α (FIG. 14B). In both cases, BMS-936564-dependent inhibition of WM cell migration was observed."}, "WM cell lines": {"system": "WM cell lines", "test": "Adhesion of WM cells to primary WM BM-MSCs", "type": "cell-based, human", "settings": "4 h treatment, adhesion after 2 h", "description": "FIGS. 15A-15C: FIGS. 15A-15C show the effect of BMS-936564 on adhesion and proliferation of WM cells in vitro. WM cell lines were treated with BMS-936564 for 4 h and subsequently tested for adhesion to primary WM BM-MSCs. […] WM cell lines, MWCL.1 (FIG. 15B) and BCWN.1 (FIG. 15C) were cultured with control media and with BMS-936564 for 48 h in the presence or absence of primary WM BMMSCs. Cell proliferation was assessed using a [^3H]-thymidine uptake assay. Bars indicate standard deviations. P indicates P value. All data represent mean (±sd) of triplicate experiments. The CXCR4 antagonist, […] (Sigma-Aldrich, St. Louis, Mo.), was used as control."}, "BCWM.1 cells": {"system": "BCWM.1 cells", "test": "Western blot of apoptosis-related proteins in WM cells", "type": "cell-based, human", "settings": "14 h", "description": "FIGS. 18A and 18B: FIGS. 18A and 18B show the effect of BMS-936564 on apoptosis-related proteins in WM cells. BCWM.1 cells were exposed to BMS-936564 for 14 h. Whole cell lysates were then harvested and subjected to western blot analysis using anti-caspase-9, anti-PARP and anti-tubulin antibodies (FIG. 18A), and anti-p-β catenin, anti-β-catenin, anti-p-GSK3β, and anti-tubulin antibodies (FIG. 18B).\nProtein lysates were obtained from WM cells by homogenization under nondenaturing conditions in lysis buffer (Cell Signaling Technology, Beverly, Mass.) supplemented with 5 mM NaF, 2 mM Na3VO4, 1 mM PMSF ([…]), 5 μg/mL leupeptine, and 5 μg/mL aprotinin. Whole-cell lysates were subjected to sodium dodecyl sulfate-polyacrylamide gel electrophoresis (SDS-PAGE) and transferred to polyvinylidene difluoride (PVDF) membrane (Bio-Rad Laboratories, Hercules, Calif.). The antibodies used for immunoblotting included: anti-phospho(p)-ERK, anti-ERK, anti-p-Akt, anti-Akt, anti-p-Src, anti-Src, anti-caspase-9, anti-PARP, anti-p-β-catenin, anti-β-catenin, anti-p-GSK3, anti-GAPDH and anti-α-tubulin antibodies (Cell Signaling, Danvers, Mass.)."}, "[2]": {"system": "C1013G/CXCR4-infected BCWM.1 cells", "test": "[3H]-thymidine uptake proliferation assay of C1013G/CXCR4-infected cells", "type": "cell-based, human", "settings": "in the context of the BM microenvironment, 48 h", "description": "FIGS. 21A-21D: FIGS. 21A-21D show BMS-936564 targets C1013G/CXCR4-mutated cells in WM cells in the context of BM. C1013G/CXCR4-infected BCWM.1 cells were tested for their migratory properties using a transwell migration assay. Cells were exposed to increasing concentrations of BMS-936564 and migration was determined after 5 h. The transwell migration assay was performed in presence of either primary WM BM-MSCs (FIG. 21A) or SDF-1α (FIG. 21B). In both cases, BMS-936564-dependent inhibition of WM cell migration was observed. C1013G/CXCR4-infected BCWM.1 cells were treated with BMS-936564/for 4 h and subsequently tested for adhesion to primary WM BM-MSCs. […] C1013G/CXCR4-infected BCWM.1 cells were cultured with control media and with BMS-936564 for 48 h in the presence or absence of primary WM BM-MSCs. Cell proliferation was assessed using [^3H]-thymidine uptake assay (FIG. 21D). Bars indicate standard deviations. P indicates P value. All data represent mean (±sd) of triplicate experiments. […]."}, "BCWM.1-mCherry+ cells": {"system": "BCWM.1-mCherry+ cells", "test": "In vivo homing and tumor progression of wild-type WM cells", "set-up": "species or system SCID/Bg mice", "description": "Serum was collected at the end of the study. […] Cell toxicity was performed by MTT. […] Bars indicate standard deviation.\nHuman serum IgM levels were determined by using a human IgM ELISA assay (ZeptoMetrix, Buffalo, N.Y.), according to the manufacturer's protocol.\nSCID/Bg mice (n=5/group) were injected with BCWM.1 infected with either precision LentiORF/CXCR4/GFP (CXCR4^+)- or empty vector probe/RFP (control)-infected BCWM.1 cells. After three weeks, mice were euthanized and organs harvested. Hematoxylin-eosin staining, immunohistochemistry for human-CD20 and -CXCR4 were performed on explanted organs. Independent experiments were conducted to evaluate differences in survival (SCID/Bg mice, n=7/group). Similar studies were conducted using […]/CXCR4-mutated cells and control vector-infected cells (control cells). In vivo homing studies were performed using BCWM.1-mCherry^+ cells: cells were injected intravenously into […] mice and treated with either BMS-936564 or control antibody (10 mg/kg, intraperitoneally; 3-4 times per week for 3 weeks). The ability of BMS-936564 to modulate WM homing to BM, spleen and lymph nodes was evaluated ex vivo at the third week on explanted tissues, by using a fluorescence microscope (Nikon Eclipse 80i, Melville, N.Y.) (Roccaro et al., 2013).\nThe anti-WM activity of BMS-936564 was also tested in vivo using wild-type WM cells. BCWM.1-mCherry^+ cells were injected intravenously into SCID/Bg mice and treated mice with either BMS-936564 or control antibody.\nAs CXCR4 inhibition is thought to induce stem cell and tumor cell mobilization, it was hypothesized that BMS-936564 may also induce mobilization of WM cells leading to increased chemosensitivity to anti-WM agents. Accordingly, the effect of BMS-936564 in modulating tumor progression and WM cell dissemination to distant BM niches in vivo was evaluated as monotherapy or in combination with bortezomib."}}, "data": [{"substance": "BMS-936564: fully human anti-CXCR4 monoclonal antibody; VH SEQ ID NO: 25, VL SEQ ID NO: 29", "values": [{"measurement": "migration of WM cell lines towards SDF-1", "setting": "[1]", "value": "inhibit migration"}, {"measurement": "migration of WM cell lines towards primary WM BM-MSCs", "setting": "[1]", "value": "inhibit migration"}, {"measurement": "WM cell adhesion to WM BM-MSCs", "setting": "WM cell lines", "value": "inhibition"}, {"measurement": "caspase-9 and PARP cleavage", "setting": "BCWM.1 cells", "value": "increase"}, {"measurement": "p-GSK3-β, p-β-catenin and β-catenin", "setting": "BCWM.1 cells", "value": "increased phospho(p)-GSK3-β, and p-β-catenin up-regulation, leading to β-catenin degradation"}, {"measurement": "targeting proliferative properties of CXCR4-mutated cells", "setting": "[2]", "value": "equally active"}, {"measurement": "tumor cells within the BM", "setting": "BCWM.1-mCherry+ cells; BMS-936564 10 mg/kg i.p., bortezomib 0.5 mg/kg i.p. x2/week, P<0.05", "value": "significant reduction"}, {"measurement": "serum IgM levels", "setting": "BCWM.1-mCherry+ cells; human IgM ELISA at end of study, P<0.05", "value": "significantly reduced"}, {"measurement": "WM cell dissemination (BM, spleen and lymph nodes, immunofluorescence imaging ex vivo)", "setting": "BCWM.1-mCherry+ cells; wild-type WM cells, 10 mg/kg intraperitoneally, vs control antibody", "value": "inhibit WM cell dissemination"}]}]}
